Common to all, as to format: biochemical
In one test the target is JAK1 (Homo sapiens, UniProt P23458). Nature of the test: JAK kinase activity, homogeneous time-resolved fluorescence (JAK1 reaction system). The note with it: ATP 2 μM, JAK1 protein 0.2 ng/μL; read-out: JAK 1 activity. The gist of the method: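 Kinase activity read as the 665 nm/615 nm time-resolved fluorescence ratio (320 nm excitation) after EDTA-containing antibody and XL-615 addition. Reaction ran 1 h at pH 7.0 (Hepes, MgCl2, DTT) with 0.2 ng/μL JAK1 and ATP at 2 μM. IC50 derived by Hill-slope fit.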

The target of the next test is JAK2 (Homo sapiens, UniProt O60674). In words: JAK kinase activity, homogeneous time-resolved fluorescence (JAK2 reaction system). The note with it: ATP 2 μM, JAK2 protein 0.01 ng/μL. The gist of the method: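 IC50 derived by Hill-equation fit of the 665/615 nm time-resolved fluorescence ratio after EDTA-containing detection mix with anti-phosphosubstrate antibody. Preceding 1 h reaction contained 2 μM ATP, 0.01 ng/μL JAK2, substrate, 50 mM Hepes pH 7.0, 5 mM MgCl2, 1 mM DTT.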

For another test, the target named is T1, JAK3 (Homo sapiens, UniProt P52333).
T1 sequence (P52333 1-1124): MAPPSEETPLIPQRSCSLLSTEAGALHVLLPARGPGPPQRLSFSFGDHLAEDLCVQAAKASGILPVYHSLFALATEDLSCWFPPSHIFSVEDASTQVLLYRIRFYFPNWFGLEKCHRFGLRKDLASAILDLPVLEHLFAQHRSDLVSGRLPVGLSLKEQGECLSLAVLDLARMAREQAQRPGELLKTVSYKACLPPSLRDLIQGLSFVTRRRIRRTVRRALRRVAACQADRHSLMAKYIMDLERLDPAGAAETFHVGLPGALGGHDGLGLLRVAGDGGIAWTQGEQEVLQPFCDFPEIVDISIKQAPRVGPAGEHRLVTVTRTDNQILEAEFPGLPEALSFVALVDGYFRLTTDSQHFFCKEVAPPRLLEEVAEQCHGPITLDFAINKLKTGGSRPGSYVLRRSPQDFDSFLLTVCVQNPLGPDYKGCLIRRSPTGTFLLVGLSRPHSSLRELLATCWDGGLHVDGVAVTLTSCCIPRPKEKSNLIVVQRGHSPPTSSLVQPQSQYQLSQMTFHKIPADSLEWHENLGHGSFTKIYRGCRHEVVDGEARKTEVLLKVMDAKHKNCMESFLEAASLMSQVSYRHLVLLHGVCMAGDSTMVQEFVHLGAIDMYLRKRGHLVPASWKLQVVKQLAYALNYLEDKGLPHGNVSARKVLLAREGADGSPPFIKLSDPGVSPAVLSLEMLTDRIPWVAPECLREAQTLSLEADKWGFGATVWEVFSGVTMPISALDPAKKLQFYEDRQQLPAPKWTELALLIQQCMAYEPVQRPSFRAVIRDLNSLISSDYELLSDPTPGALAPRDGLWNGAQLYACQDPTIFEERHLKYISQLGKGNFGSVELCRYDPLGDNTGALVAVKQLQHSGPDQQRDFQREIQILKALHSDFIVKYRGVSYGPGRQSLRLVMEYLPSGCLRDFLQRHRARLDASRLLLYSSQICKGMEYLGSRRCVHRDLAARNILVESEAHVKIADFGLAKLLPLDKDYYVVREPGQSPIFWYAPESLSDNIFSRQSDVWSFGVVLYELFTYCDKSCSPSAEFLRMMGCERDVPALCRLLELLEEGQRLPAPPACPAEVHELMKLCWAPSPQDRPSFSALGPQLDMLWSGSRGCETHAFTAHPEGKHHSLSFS
In words: JAK kinase activity, homogeneous time-resolved fluorescence (JAK3 reaction system). The following applies: ATP 2 μM, JAK3 protein 0.04 ng/μL; read-out: JAK 3 activity.

The next test concerns the target TYK2 (Homo sapiens, UniProt P29597). In words: JAK kinase activity, homogeneous time-resolved fluorescence (TYK2 reaction system). The following applies: ATP 2 μM, TYK2 protein 0.2 ng/μL; read-out: TYK 2 activity. The gist of the method:
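Activity read as the 665 nm/615 nm ratio after adding EDTA-containing detection mix with anti-phospho-substrate antibody and XL-615. Beforehand, 0.2 ng/μL TYK2, 2 μM ATP, substrate and compound reacted 1 h in pH 7.0 Hepes buffer with MgCl2 and DTT. IC50 fitted with Hill-slope equation.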

Sequence of TYK2 (P29597 whole entry): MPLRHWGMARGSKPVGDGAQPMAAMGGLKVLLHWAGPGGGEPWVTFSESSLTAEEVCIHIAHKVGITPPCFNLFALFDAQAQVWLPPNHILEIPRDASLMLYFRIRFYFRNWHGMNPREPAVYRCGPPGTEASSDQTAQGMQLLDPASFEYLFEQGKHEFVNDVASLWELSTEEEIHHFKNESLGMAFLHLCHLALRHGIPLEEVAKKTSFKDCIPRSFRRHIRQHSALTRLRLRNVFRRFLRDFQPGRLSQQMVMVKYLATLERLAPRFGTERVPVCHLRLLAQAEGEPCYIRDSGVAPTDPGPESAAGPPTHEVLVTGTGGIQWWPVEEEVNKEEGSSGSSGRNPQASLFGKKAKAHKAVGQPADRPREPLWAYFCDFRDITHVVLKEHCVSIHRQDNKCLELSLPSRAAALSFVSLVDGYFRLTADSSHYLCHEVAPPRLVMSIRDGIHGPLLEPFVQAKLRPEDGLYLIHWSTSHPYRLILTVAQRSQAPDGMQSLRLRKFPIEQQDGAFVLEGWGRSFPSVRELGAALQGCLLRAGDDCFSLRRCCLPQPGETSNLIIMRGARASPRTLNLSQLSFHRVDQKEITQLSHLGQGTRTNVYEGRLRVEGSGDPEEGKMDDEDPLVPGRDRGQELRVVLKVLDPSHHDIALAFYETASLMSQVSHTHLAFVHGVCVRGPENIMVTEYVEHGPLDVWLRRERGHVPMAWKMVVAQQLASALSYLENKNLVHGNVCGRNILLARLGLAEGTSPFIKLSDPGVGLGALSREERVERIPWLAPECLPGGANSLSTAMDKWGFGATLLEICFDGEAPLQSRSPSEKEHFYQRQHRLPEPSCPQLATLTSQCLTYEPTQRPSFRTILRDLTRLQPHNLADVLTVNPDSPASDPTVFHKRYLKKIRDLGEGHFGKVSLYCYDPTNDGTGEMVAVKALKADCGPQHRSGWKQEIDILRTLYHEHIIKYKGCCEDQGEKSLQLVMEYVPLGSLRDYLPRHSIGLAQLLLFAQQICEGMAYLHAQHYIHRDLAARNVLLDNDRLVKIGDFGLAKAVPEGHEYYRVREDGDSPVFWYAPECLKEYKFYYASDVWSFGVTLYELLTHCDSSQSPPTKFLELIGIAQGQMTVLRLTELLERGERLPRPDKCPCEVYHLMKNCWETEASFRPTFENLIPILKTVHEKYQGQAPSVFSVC
Sequence of JAK1 (P23458 whole entry): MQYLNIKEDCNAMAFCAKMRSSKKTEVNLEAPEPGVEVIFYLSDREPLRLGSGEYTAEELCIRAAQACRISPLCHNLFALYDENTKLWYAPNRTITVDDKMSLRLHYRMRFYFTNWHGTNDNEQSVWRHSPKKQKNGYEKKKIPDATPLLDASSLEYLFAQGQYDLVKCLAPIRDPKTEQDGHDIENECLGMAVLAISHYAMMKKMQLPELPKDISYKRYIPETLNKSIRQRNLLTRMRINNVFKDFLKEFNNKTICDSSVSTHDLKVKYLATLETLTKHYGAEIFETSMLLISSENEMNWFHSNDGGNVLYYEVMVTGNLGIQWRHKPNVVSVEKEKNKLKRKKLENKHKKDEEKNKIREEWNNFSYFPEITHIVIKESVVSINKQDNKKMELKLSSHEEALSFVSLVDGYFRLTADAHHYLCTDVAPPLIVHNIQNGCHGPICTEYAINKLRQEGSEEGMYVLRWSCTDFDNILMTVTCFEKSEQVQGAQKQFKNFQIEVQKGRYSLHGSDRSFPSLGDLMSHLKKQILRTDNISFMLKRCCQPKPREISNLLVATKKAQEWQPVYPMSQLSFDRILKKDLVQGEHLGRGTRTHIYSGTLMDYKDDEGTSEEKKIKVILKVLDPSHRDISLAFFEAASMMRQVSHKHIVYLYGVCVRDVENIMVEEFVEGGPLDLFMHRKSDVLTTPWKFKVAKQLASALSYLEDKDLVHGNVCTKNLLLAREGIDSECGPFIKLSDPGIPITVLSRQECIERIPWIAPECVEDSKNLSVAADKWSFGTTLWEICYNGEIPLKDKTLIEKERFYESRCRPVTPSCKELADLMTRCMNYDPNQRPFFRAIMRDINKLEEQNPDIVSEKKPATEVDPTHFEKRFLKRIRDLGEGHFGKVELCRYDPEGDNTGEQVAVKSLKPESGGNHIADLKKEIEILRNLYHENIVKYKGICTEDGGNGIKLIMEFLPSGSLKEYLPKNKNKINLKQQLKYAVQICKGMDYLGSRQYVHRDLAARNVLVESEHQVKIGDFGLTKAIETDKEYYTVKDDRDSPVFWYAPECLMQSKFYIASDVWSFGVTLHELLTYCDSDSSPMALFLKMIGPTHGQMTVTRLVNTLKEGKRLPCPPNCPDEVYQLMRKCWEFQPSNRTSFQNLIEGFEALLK
Sequence of JAK2 (O60674 whole entry): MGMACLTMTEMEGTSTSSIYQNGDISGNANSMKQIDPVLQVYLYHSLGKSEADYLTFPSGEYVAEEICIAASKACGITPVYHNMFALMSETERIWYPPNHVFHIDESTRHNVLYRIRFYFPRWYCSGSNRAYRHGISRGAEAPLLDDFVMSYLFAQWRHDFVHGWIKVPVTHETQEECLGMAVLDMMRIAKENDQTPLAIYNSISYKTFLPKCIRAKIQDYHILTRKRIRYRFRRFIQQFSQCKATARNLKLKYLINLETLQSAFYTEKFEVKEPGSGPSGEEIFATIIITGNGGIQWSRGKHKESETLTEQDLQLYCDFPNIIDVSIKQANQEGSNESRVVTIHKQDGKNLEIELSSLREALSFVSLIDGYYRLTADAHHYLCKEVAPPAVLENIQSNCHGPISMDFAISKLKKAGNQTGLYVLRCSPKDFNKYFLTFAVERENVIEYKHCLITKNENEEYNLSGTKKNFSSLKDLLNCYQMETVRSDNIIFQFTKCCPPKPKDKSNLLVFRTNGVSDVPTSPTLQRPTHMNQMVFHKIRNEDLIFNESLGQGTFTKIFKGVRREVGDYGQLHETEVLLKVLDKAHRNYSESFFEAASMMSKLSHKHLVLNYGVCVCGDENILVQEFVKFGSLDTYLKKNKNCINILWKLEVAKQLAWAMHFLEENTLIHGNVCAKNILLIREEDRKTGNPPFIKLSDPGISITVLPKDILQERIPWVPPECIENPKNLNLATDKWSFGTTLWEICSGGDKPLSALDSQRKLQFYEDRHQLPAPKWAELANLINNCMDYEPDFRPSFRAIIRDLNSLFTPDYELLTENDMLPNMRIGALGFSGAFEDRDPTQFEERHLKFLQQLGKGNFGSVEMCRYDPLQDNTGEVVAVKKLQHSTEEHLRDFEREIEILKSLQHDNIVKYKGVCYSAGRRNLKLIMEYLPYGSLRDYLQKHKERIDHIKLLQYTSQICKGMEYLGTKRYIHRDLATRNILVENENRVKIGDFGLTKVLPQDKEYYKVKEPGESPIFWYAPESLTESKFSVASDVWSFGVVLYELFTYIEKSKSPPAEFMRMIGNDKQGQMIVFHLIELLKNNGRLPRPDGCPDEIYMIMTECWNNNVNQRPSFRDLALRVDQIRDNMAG

Turning to `CC1CCNC(=O)c2ccc(c([N+](=O)[O-])c2)-c2ccnc(n2)Nc2ccc(Oc3cccnc3)c(c2)COC1` (centres unmarked) [Example 129, 8-methyl-1^2-nitro-4^4-(pyridin-3-ox-yl)-6-oxa-3,11-diaza-2(4,2)-pyrimi-dina-1(1,4),4(1,3)-dibenzenacyclo-dodecaphan-12-one], the IC50 is 1000 to 10000 nM on JAK1, 1000 to 10000 nM at JAK2, 101 to 1000 nM at JAK3 and greater than 10000 nM at TYK2.
Take `CC1CCNC(=O)c2ccc(c(N)c2)-c2ccnc(n2)Nc2ccc(Oc3cccnc3)c(c2)COC1` (centres unmarked) [Example 130, 1^2-amino-8-methyl-4^4-(pyridin-3-oxy)-6-oxa-3,11-diaza-2(4,2)-pyri-midina-1(1,4),4(1,3)-dibenzenacyclo-dodecaphan-12-one]: the IC50 is 1000 to 10000 nM at JAK1, 101 to 1000 nM at JAK2, 11 to 100 nM at JAK3 and greater than 10000 nM on TYK2.
The like results for `CC1CCNC(=O)c2ccc(c(N)c2)-c2ccnc(n2)Nc2ccc(OCC3CCCC3)c(c2)COC1` (centres unmarked) [Example 131, 1^2-amino-4^4-(cyclopentylmethoxy)-8-methyl-6-oxa-3,11-diaza-2(4,2)-pyrimidina-1(1,4),4(1,3)-dibenzena-cyclododecaphan-12-one] were, in that order, 1000 to 10000 nM, 101 to 1000 nM, 11 to 100 nM and greater than 10000 nM.
On the same counts, the results for `CC1CCNC(=O)c2ccc(c(N)c2)-c2ccnc(n2)Nc2ccc(OCC(F)(F)F)c(c2)COC1` (centres unmarked) [Example 132] are 1000 to 10000 nM, 101 to 1000 nM, less than 10 nM and greater than 10000 nM.
On the same counts, the results for `O=C1NCCCCOCc2cc(ccc2OCC2CCc3ccccc32)Nc2nccc(n2)-c2ccc1cc2[N+](=O)[O-]` (centres unmarked) [Example 133, 4^4-((2,3-dihydro-1H-inden-1-yl)methoxy)-1^2-nitro-6-oxa-3,11-diaza-2(4,2)-pyrimidina-1(1,4),4(1,3)-dibenzenacyclododecaphan-12-one] are greater than 10000 nM, greater than 10000 nM, 1000 to 10000 nM and greater than 10000 nM.
With `Nc1cc2ccc1-c1ccnc(n1)Nc1ccc(OCC3CCc4ccccc43)c(c1)COCCCCNC2=O` (centres unmarked) [Example 134, 1^2-amino-4^4-((2,3-dihydro-1H-inden-1-yl)methoxy)-6-oxa-3,11-diaza-2(4,2)-pyrimidina-1(1,4),4(1,3)-dibenzenacyclododecaphan-12-one], the IC50 at JAK1 fell in the range of 1000 to 10000 nM; on JAK2 it was 1000 to 10000 nM; on JAK3, 11 to 100 nM; on TYK2, 1000 to 10000 nM.
On to `CC1CCNC(=O)c2ccc(c([N+](=O)[O-])c2)-c2ccnc(n2)Nc2ccc(OCC3CCOC3)c(c2)COC1` (centres unmarked) [Example 135, 8-methyl-1^2-nitro-4^4-((tetrahydro-furan-3-yl)methoxy)-6-oxa-3,11-diaza-2(4,2)-pyrimidina-1(1,4),4(1,3)-dibenzenacyclododecaphan-12-one], for which the IC50 at JAK1 was 1000 to 10000 nM; against JAK2 it was 1000 to 10000 nM; on JAK3, 101 to 1000 nM; at TYK2, greater than 10000 nM.
For `CC1CCNC(=O)c2ccc(c(N)c2)-c2ccnc(n2)Nc2ccc(OCC3CCOC3)c(c2)COC1` (centres unmarked) [Example 136, 1^2-amino-8-methyl-4^4-((tetrahydro-furan-3-yl)methoxy)-6-oxa-3,11-diaza-2(4,2)-pyrimidina-1(1,4),4(1,3)-dibenzenacyclododecaphan-12-one], the IC50 was 1000 to 10000 nM at JAK1, 101 to 1000 nM against JAK2, less than 10 nM at JAK3 and 1000 to 10000 nM on TYK2.
Take `CC1CCNC(=O)c2ccc(c([N+](=O)[O-])c2)-c2ccnc(n2)Nc2ccc(OC3CCCOC3)c(c2)COC1` (centres unmarked) [Example 137, 8-methyl-1^2-nitro-4^4-((tetrahydro-2H-pyran-3-yl)oxy)-6-oxa-3,11-di-aza-2(4,2)-pyrimidina-1(1,4),4(1,3)-dibenzenacyclododecaphan-12-one]: the IC50 on JAK1 was 1000 to 10000 nM; against JAK2, 1000 to 10000 nM; on JAK3, 101 to 1000 nM; on TYK2 it was greater than 10000 nM.
`CC1CCNC(=O)c2ccc(c(N)c2)-c2ccnc(n2)Nc2ccc(OC3CCCOC3)c(c2)COC1` (centres unmarked) [Example 138]: the IC50 at JAK1 was 1000 to 10000 nM; against JAK2, 101 to 1000 nM; on JAK3, less than 10 nM; at TYK2 it was 1000 to 10000 nM.
Take `CC1CCNC(=O)c2ccc(c([N+](=O)[O-])c2)-c2ccnc(n2)Nc2ccc(OCC3CCCOC3)c(c2)COC1` (centres unmarked) [Example 139, 8-methyl-1^2-nitro-4^4-((tetrahydro-2H-pyran-3-yl)methoxy)-6-oxa-3,11-diaza-2(4,2)-pyrimidina-1(1,4),4(1,3)-dibenzenacyclododecaphan-12-one]: the IC50 at JAK1 is 1000 to 10000 nM; against JAK2, 1000 to 10000 nM; at JAK3, 101 to 1000 nM; on TYK2, greater than 10000 nM.
As to `CC1CCNC(=O)c2ccc(c(N)c2)-c2ccnc(n2)Nc2ccc(OCC3CCCOC3)c(c2)COC1` (centres unmarked) [Example 140, 1^2-amino-8-methyl-4^4-((tetrahydro-2H-pyran-3-yl)methoxy)-6-oxa-3,11-diaza-2(4,2)-pyrimidina-1(1,4),4(1,3)-dibenzenacyclododecaphan-12-one], the IC50 was 1000 to 10000 nM at JAK1, 101 to 1000 nM against JAK2, less than 10 nM at JAK3 and 1000 to 10000 nM on TYK2.
Regarding `CC1CCNC(=O)c2ccc(c([N+](=O)[O-])c2)-c2ccnc(n2)Nc2ccc(OCC3CCC3)c(c2)COC1` (centres unmarked) [Example 141, 4^4-(cyclobutylmethoxy)-8-methyl-1^2-nitro-6-oxa-3,11-diaza-2(4,2)-pyrimidina-1(1,4),4(1,3)-dibenzena-cyclododecaphan-12-one], the IC50 at JAK1 is greater than 10000 nM; at JAK2, greater than 10000 nM; at JAK3, 1000 to 10000 nM; on TYK2, greater than 10000 nM.
On to `CC1CCNC(=O)c2ccc(c(N)c2)-c2ccnc(n2)Nc2ccc(OCC3CCC3)c(c2)COC1` (centres unmarked) [Example 142], for which the IC50 is 1000 to 10000 nM on JAK1, 1000 to 10000 nM on JAK2, 11 to 100 nM at JAK3 and greater than 10000 nM at TYK2.
As for `Nc1cc2ccc1-c1ccnc(n1)Nc1ccc(Oc3ccncc3)c(c1)COCCCCNC2=O` [Example 143, 1^2-amino-4^4-(pyridin-4-oxy)-6-oxa-3,11-diaza-2(4,2)-pyrimidina-1(1,4),4(1,3)-dibenzenacyclododeca-phan-12-one], the IC50 at JAK1 is greater than 10000 nM; against JAK2, greater than 10000 nM; at JAK3, 101 to 1000 nM; on TYK2, greater than 10000 nM.
For the compound `CC1CCNC(=O)c2ccc(c([N+](=O)[O-])c2)-c2ccnc(n2)Nc2ccc(OCC3CC3)c(c2)COC1` (centres unmarked) [Example 144, 4^4-(cyclopropylmethoxy)-8-methyl-1^2-nitro-6-oxa-3,11-diaza-2(4,2)-pyrimidina-1(1,4),4(1,3)-dibenzena-cyclododecaphan-12-one], the IC50 was greater than 10000 nM on JAK1, greater than 10000 nM against JAK2, 1000 to 10000 nM at JAK3 and greater than 10000 nM at TYK2.
For `CC1CCNC(=O)c2ccc(c(N)c2)-c2ccnc(n2)Nc2ccc(OCC3CC3)c(c2)COC1` (centres unmarked) [Example 145, 1^2-amino-4^4-(cyclopropylmethoxy)-8-methyl-6-oxa-3,11-diaza-2(4,2)-pyrimidina-1(1,4),4(1,3)-dibenzena-cyclododecaphan-12-one], the IC50 was 101 to 1000 nM on JAK1, 101 to 1000 nM against JAK2, less than 10 nM at JAK3 and 1000 to 10000 nM at TYK2.
